What follows are compounds tested on HIV-1 (H9/IIIB strain) (assay: Multiple round HIV-1 infection assay in MT4-GFP cells (wild type cell assay, Viking)). Conditions: 0% NHS condition; MT4-GFP cells infected with HIV-1 H9/IIIB; inhibition of reproductive ratio R0, ~48 h and ~72 h post-infection; read-out: WILD TYPE CELL ASSAY Viking IP (0% NHS).
Format: cell-based
Method: Assessing Antiviral Potency in a Multiple Round HIV-1 Infection Assay
The antiviral activity of the Examples herein was assessed in an assay that measures the rate of replication of HIV in cell culture, and performed according to the following procedure. HIV-1 replication was monitored using MT4-gag-GFP clone D3 (hereafter designated MT4-GFP), which are MT-4 cells modified to harbor a GFP reporter gene, the expression of which is dependent on the HIV-1 expressed proteins tat and rev. Productive infection of an MT4-GFP cell with HIV-1 results in GFP expression approximately 24 h post-infection. MT4-GFP cells were maintained at 37° C./5% CO2/90% relative humidity in RPMI 1640 supplemented with 10% fetal bovine serum, 100 U/ml penicillin/streptomycin, and 400 μg/ml G418 to maintain the reporter gene. For infections, MT4-GFP cells were placed in the same medium lacking G418 and infected overnight with HIV-1 (H9/IIIB strain) virus at an approximate multiplicity of infection of 0.01 in the same incubation conditions. Cells were then washed and re-suspended in either RPMI 1640 at 2×10^5 cells/mL (0% NHS condition) or 100% normal human serum (NHS) at 2×10^5 cells/mL (100% NHS condition). Compound plates were prepared by dispensing compounds dissolved in DMSO into wells of 384 well poly-D-lysine-coated plates (0.2 μl/well) using an ECHO acoustic dispenser. Each compound was tested in a 10-point serial 3-fold dilution (typical final concentrations: 1050 nM-0.05 nM for 0% NHS condition or […]-2.13 nM for 100% NHS condition). Controls included no inhibitor (DMSO only) and a combination of three antiviral agents (efavirenz, indinavir, an in-house integrase strand transfer inhibitor at final concentrations of […] each). Cells were added ([…]) to compound plates and the infected cells were maintained at 37° C./5% CO2/90% relative humidity.
Infected cells were quantified at two time points, ˜48 h and ˜72 h post-infection, by counting the number of green cells in each well using an Acumen eX3 scanner. The increase in the number of green cells over ˜24 h period gives the reproductive ratio, RO, which is typically 5-15 and has been shown experimentally to be in logarithmic phase (data not shown). Inhibition of R0 is calculated for each well, and IC50s determined by non-linear 4-parameter curve fitting.

Row | IC50 | Compound
1 | 1.1 nM | CCN1CN2CC(O)c3c(C(=O)NCc4c(F)ccc(Cl)c4F)c(=O)c(O)c(n32)C1=O (stereo not shown) [Compound 53]
2 | 219 nM | CCN1C(=O)c2c(O)c(=O)c(C(=O)NCc3ccc(C(F)(F)F)cc3)c3n2N(CC3O)C1C (stereo not shown) [Compound 80]
3 | 4.2 nM | CCN1CN2CC(O)c3c(C(=O)NCc4ccc(F)c(Cl)c4F)c(=O)c(O)c(n32)C1=O (stereo not shown) [Compound 50]
4 | 66 nM | CCN1C(=O)c2c(O)c(=O)c(C(=O)NCc3ccc(C(F)F)cc3)c3n2N(CC3O)C1C (single isomer, unassigned) [Compound 74]
5 | 4 nM | CCN1CN2CC(O)c3c(C(=O)NCc4ccc(F)cc4F)c(=O)c(O)c(n32)C1=O (stereo not shown) [Compound 58]
6 | 2.3 nM | CCN1CN2CC(O)c3c(C(=O)NCc4c(F)ccc(F)c4F)c(=O)c(O)c(n32)C1=O (stereo not shown) [Compound 48]
7 | 3.1 nM | CN1C(=O)c2c(O)c(=O)c(C(=O)NCc3c(F)ccc(Cl)c3F)c3n2N(CC3O)C12CCOC2 (single isomer, unassigned) [Compound 116]
8 | 1.9 nM | CN1C(=O)c2c(O)c(=O)c(C(=O)NCc3ccc(F)cc3F)c3n2N(CC3O)C12CCOC2 (stereo not shown) [Compound 114]
9 | 87 nM | CCN1C(=O)c2c(O)c(=O)c(C(=O)NCc3ccc(C(F)(F)F)cc3)c3n2N(CC3O)C1C (single isomer, unassigned) [Compound 78]
10 | 1.8 nM | CCN1C(=O)c2c(O)c(=O)c(C(=O)NCc3c(F)ccc(Cl)c3F)c3n2N(CC3O)C1C (single isomer, unassigned) [Compound 70]
11 | 2.3 nM | CCN1C(=O)c2c(O)c(=O)c(C(=O)NCc3c(F)ccc(Cl)c3F)c3n2N(CC3O)C1C (stereo not shown) [Compound 72]
12 | 3.1 nM | COCCN1CN2CC(O)c3c(C(=O)NCc4c(F)ccc(Cl)c4F)c(=O)c(O)c(n32)C1=O (stereo not shown) [Compound 44]
13 | 1.6 nM | CN1C(=O)c2c(O)c(=O)c(C(=O)NCc3c(F)ccc(Cl)c3F)c3n2N(CC3O)C12CCOC2 (stereo not shown) [Compound 118]
14 | 2.9 nM | CCN1C(=O)c2c(O)c(=O)c(C(=O)NCc3ccc(F)cc3)c3n2N(CC3O)C1C (stereo not shown) [Compound 88]
15 | 3.4 nM | CCC1N(C)C(=O)c2c(O)c(=O)c(C(=O)NCc3c(F)ccc(Cl)c3F)c3n2N1CC3O (single isomer, unassigned) [Compound 26]
16 | 1.9 nM | CC1N(C)C(=O)c2c(O)c(=O)c(C(=O)NCc3ccc(F)cc3F)c3n2N1CC3O (stereo not shown) [Compound 16]
17 | 1.9 nM | COCCN1CN2CC(O)c3c(C(=O)NCc4cccc(Cl)c4F)c(=O)c(O)c(n32)C1=O (stereo not shown) [Compound 42]
18 | 4.7 nM | CCN1CN2CC(O)c3c(C(=O)NCc4c(F)ccc(Cl)c4F)c(=O)c(O)c(n32)C1=O (stereo not shown) [Compound 54]
19 | 1.9 nM | CCN1C(=O)c2c(O)c(=O)c(C(=O)NCc3ccc(F)cc3F)c3n2N(CC3O)C1C (single isomer, unassigned) [Compound 90]
20 | 2.5 nM | CCC1N(C)C(=O)c2c(O)c(=O)c(C(=O)NCc3ccc(F)cc3F)c3n2N1CC3O (stereo not shown) [Compound 32]
21 | 103 nM | CCN1C(=O)c2c(O)c(=O)c(C(=O)NCc3ccc(C(F)(F)F)cc3)c3n2N(CC3O)C1C (stereo not shown) [Compound 79]
22 | 2.8 nM | CCC1N(C)C(=O)c2c(O)c(=O)c(C(=O)NCc3c(F)cc(F)cc3F)c3n2N1CC3O (single isomer, unassigned) [Compound 34]

Same assay, conditions: Human immunodeficiency virus 1, IIIB, 0% NHS condition; MT4-GFP cells infected with HIV-1 H9/IIIB; inhibition of reproductive ratio R0, ~48 h and ~72 h post-infection; read-out: WILD TYPE CELL ASSAY Viking IP (0% NHS)

Row | IC50 | Compound
23 | 3.5 nM | CN1CN2CC(O)c3c(C(=O)NCc4ccc(F)cc4)c(=O)c(O)c(n32)C1=O (stereo not shown) [Compound 5]
24 | 1.5 nM | CC1N(C)C(=O)c2c(O)c(=O)c(C(=O)NCc3c(F)cc(F)cc3F)c3n2N1CC3O (single isomer, unassigned) [Compound 17]
25 | 2 nM | CCC1N(C)C(=O)c2c(O)c(=O)c(C(=O)NCc3c(F)ccc(Cl)c3F)c3n2N1CC3O (single isomer, unassigned) [Compound 25]
26 | 4.2 nM | CCN1C(=O)c2c(O)c(=O)c(C(=O)NCc3ccc(F)cc3)c3n2N(CC3O)C1C (stereo not shown) [Compound 87]
27 | 3.2 nM | CN1CN2CC(O)c3c(C(=O)NCc4ccc(F)cc4F)c(=O)c(O)c(n32)C1=O (stereo not shown) [Compound 3]
28 | 1.6 nM | CCN1CN2CC(O)c3c(C(=O)NCc4c(F)cc(F)cc4F)c(=O)c(O)c(n32)C1=O (stereo not shown) [Compound 55]
29 | 2.8 nM | CCN1C(=O)c2c(O)c(=O)c(C(=O)NCc3c(F)ccc(F)c3F)c3n2N(CC3O)C1C (single isomer, unassigned) [Compound 81]
30 | 2.6 nM | CCN1C(=O)c2c(O)c(=O)c(C(=O)NCc3ccc(F)cc3)c3n2N(CC3O)C1C (single isomer, unassigned) [Compound 85]
31 | 2.4 nM | CCN1CN2CC(O)c3c(C(=O)NCc4ccc(F)cc4F)c(=O)c(O)c(n32)C1=O (stereo not shown) [Compound 57]

Source: patent publication US11884683B2, “Tricyclic heterocycle compounds useful as HIV integrase inhibitors” (Merck Sharp & Dohme LLC, priority 2018, dated 2024)
